Patent publication US9399627B2, “Substituted macrocyclic compounds having proteasome inhibitory activity” (THE REGENTS OF THE UNIVERSITY OF CALIFORNIA, priority 2012, dated 2016)

Tests used:
60 cancerous cell lines = experiment: NCI 60-cell screen; type: cell-based
Procedure: (§1) TIR-199 activity in inhibiting cancer cell growth was tested in a National Cancer Institute (“NCI”) 60-cell screen in triplicate (see FIGS. 3-14).
(§2) The NCI 60-cell screens were initially tested with 10 μM dose of TIR-199. […] Due to the initial results being so promising, a full dose-response study was performed in triplicate with the NCI cell lines.

OVCAR-5 = experiment: NCI 60-cell screen dose-response study, OVCAR-5; type: cell-based; conditions: Homo sapiens, dose-response study in triplicate, most sensitive cell line
Procedure: as §1, §2

RXF 393 renal cancer = experiment: NCI 60-cell screen dose-response study, RXF 393; type: cell-based
Procedure: as §1, §2

TK-10 renal cancer = experiment: NCI 60-cell screen dose-response study, TK-10; type: cell-based
Procedure: as §1, §2

BT-549 breast cancer = experiment: NCI 60-cell screen dose-response study, BT-549; type: cell-based
Procedure: as §1, §2

HCC-2998 colon cancer = experiment: NCI 60-cell screen dose-response study, HCC-2998; type: cell-based
Procedure: as §1, §2

[1] = test system: NCI-H226 lung cancer line; experiment: NCI 60-cell screen dose-response study, NCI-H226; type: cell-based
Procedure: as §1, §2

PC3 prostate cancer = experiment: NCI 60-cell screen dose-response study, PC3; type: cell-based
Procedure: as §1, §2

[2] = test system: multiple myeloma cell lines; experiment: Studies with multiple myeloma cell lines; type: cell-based
cancerous cell lines = experiment: Confirmatory in vitro cell-based screens; conditions: confirmatory in-vitro experiments in various laboratories

CCCCCCCCCCCCNC(=O)N[C@H](C(=O)N[C@H]1/C=C/CCNC(=O)/C=C/[C@H](C)NC1=O)C(C)C [TIR-199]
growth suppression and/or apoptosis induction in dose response study (60 cancerous cell lines; 60 cancerous cell lines, varying log10 amounts (FIG. 3)): suppressed the growth and/or induced apoptosis in every cancerous cell line
suppression of cancer cell growth (60 cancerous cell lines; initial single dose, 10 μM): effectively suppressed cancer cell growth universally across the cell lines
effectiveness on kidney cancer activity (60 cancerous cell lines; kidney (renal) cancer lines): surprisingly potent
IC50 (OVCAR-5): 10 nM
sensitivity of cell line (RXF 393 renal cancer): particularly sensitive
sensitivity of cell line (TK-10 renal cancer): particularly sensitive
sensitivity of cell line (BT-549 breast cancer): particularly sensitive
sensitivity of cell line (HCC-2998 colon cancer): particularly sensitive
potency against cell line [1]: Particular potency
sensitivity of cell line (PC3 prostate cancer): particularly sensitive
potency compared with bortezomib [2]: nearly as potent as the FDA approved proteasome inhibitor, bortezomib
potency against cancerous cell lines (cancerous cell lines): low nanomolar potency
